PubChem BioAssay (NCI)
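GI50 = concentration required for 50% inhibition of growth. Definition used: TGI = concentration required for complete inhibition of growth.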

Assays:
Assay in all cases: inhibition of tumour cell growth, NCI panel, 384-well format
[1] = tested on: 786-0 renal
[2] = tested on: A549 NSCLC
[3] = tested on: ACHN renal
[4] = tested on: BT-549 breast
[5] = tested on: CAKI-1 renal
[6] = tested on: CCRF-CEM leukemia
[7] = tested on: COLO 205 colon
[8] = tested on: HCC-2998 colon
[9] = tested on: HCT-116 colon
[10] = tested on: HCT-15 colon
[11] = tested on: HL-60(TB) leukemia
[12] = tested on: HOP-62 NSCLC
[13] = tested on: HOP-92 NSCLC
[14] = tested on: HS 578T breast
[15] = tested on: IGROV1 ovarian
[16] = tested on: K-562 leukemia
[17] = tested on: KM12 colon
[18] = tested on: LOX IMVI melanoma
[19] = tested on: MALME-3M melanoma
[20] = tested on: MCF7 breast
[21] = tested on: MDA-MB-231 breast
[22] = tested on: MDA-MB-468 breast
[23] = tested on: MOLT-4 leukemia
[24] = tested on: NCI-H226 lung
[25] = tested on: NCI-H23 lung
[26] = tested on: NCI-H322M lung
[27] = tested on: NCI-H460 NSCLC
[28] = tested on: NCI-H522 lung
[29] = tested on: NCI/ADR-RES ovarian
[30] = tested on: OVCAR-3 ovarian
[31] = tested on: OVCAR-4 ovarian
[32] = tested on: PC-3 prostate
[33] = tested on: RXF 393 renal
[34] = tested on: SF-268 CNS
[35] = tested on: SF-295 CNS
[36] = tested on: SF-539 CNS
[37] = tested on: SK-MEL-2 melanoma
[38] = tested on: SK-MEL-28 melanoma
[39] = tested on: SK-MEL-5 melanoma
[40] = tested on: SK-OV-3 ovarian
[41] = tested on: SN12C renal
[42] = tested on: SNB-19 CNS
[43] = tested on: SR leukemia
[44] = tested on: SW-620 colon
[45] = tested on: TK-10 renal
[46] = tested on: UACC-257 melanoma
[47] = tested on: UO-31 renal

CC[C@H](NC(=O)[C@H](CS(=O)(=O)CC1CC1)N[C@@H](c1ccc(F)cc1)C(F)(F)F)C(=O)C(=O)NC1CC1
GI50 [1]: > 100 µM
TGI [1]: > 100 µM
GI50 [2]: > 100 µM
TGI [2]: > 100 µM
GI50 [3]: > 100 µM
TGI [3]: > 100 µM
GI50 [4]: > 100 µM
TGI [4]: > 100 µM
GI50 [5]: > 100 µM
TGI [5]: > 100 µM
GI50 [6]: 60.9 µM
TGI [6]: > 100 µM
GI50 [7]: > 100 µM
TGI [7]: > 100 µM
GI50 [8]: > 100 µM
TGI [8]: > 100 µM
GI50 [9]: > 100 µM
TGI [9]: > 100 µM
GI50 [10]: > 100 µM
TGI [10]: > 100 µM
GI50 [11]: 84.2 µM
TGI [11]: > 100 µM
GI50 [12]: 98.8 µM
TGI [12]: > 100 µM
GI50 [13]: > 100 µM
TGI [13]: > 100 µM
GI50 [14]: > 100 µM
TGI [14]: > 100 µM
GI50 [15]: > 100 µM
TGI [15]: > 100 µM
GI50 [16]: > 93.1 µM
TGI [16]: > 100 µM
GI50 [17]: > 100 µM
TGI [17]: > 100 µM
GI50 [18]: > 100 µM
TGI [18]: > 100 µM
GI50 [19]: > 100 µM
TGI [19]: > 100 µM
GI50 [20]: 97.5 µM
TGI [20]: > 100 µM
GI50 [21]: > 100 µM
TGI [21]: > 100 µM
GI50 [22]: 22.8 µM
TGI [22]: 67.5 µM
GI50 [23]: 29.5 µM
TGI [23]: > 100 µM
GI50 [24]: > 71.7 µM
TGI [24]: > 100 µM
GI50 [25]: > 100 µM
TGI [25]: > 100 µM
GI50 [26]: > 100 µM
TGI [26]: > 100 µM
GI50 [27]: > 100 µM
TGI [27]: > 100 µM
GI50 [28]: > 100 µM
TGI [28]: > 100 µM
GI50 [29]: > 100 µM
TGI [29]: > 100 µM
GI50 [30]: > 100 µM
TGI [30]: > 100 µM
GI50 [31]: > 100 µM
TGI [31]: > 100 µM
GI50 [32]: > 100 µM
TGI [32]: > 100 µM
GI50 [33]: > 88.2 µM
TGI [33]: > 100 µM
GI50 [34]: > 51.4 µM
TGI [34]: > 93.9 µM
GI50 [35]: > 100 µM
TGI [35]: > 100 µM
GI50 [36]: > 100 µM
TGI [36]: > 100 µM
GI50 [37]: > 100 µM
TGI [37]: > 100 µM
GI50 [38]: > 100 µM
TGI [38]: > 100 µM
GI50 [39]: > 100 µM
TGI [39]: > 100 µM
GI50 [40]: > 100 µM
TGI [40]: > 100 µM
GI50 [41]: > 100 µM
TGI [41]: > 100 µM
GI50 [42]: > 100 µM
TGI [42]: > 100 µM
GI50 [43]: 19.3 µM
TGI [43]: 74.5 µM
GI50 [44]: > 100 µM
TGI [44]: > 100 µM
GI50 [45]: > 100 µM
TGI [45]: > 100 µM
GI50 [46]: > 100 µM
TGI [46]: > 100 µM
GI50 [47]: > 100 µM
TGI [47]: > 100 µM
